Measurements from patent publication US11104883B2, “SC-beta cells and compositions and methods for generating the same” (President and Fellows of Harvard College, priority 2013, dated 2021).

Tests used:
cells in Steps 3-6 = assay: Modified differentiation protocol (Steps 3-6): cell survival and marker-positive populations; format: cell-based, human; conditions: for cell survival: Steps 3-5
Text: FIG. 15A is a schematic illustration of the protocol.
One challenge for the stem cell field has been generating a sufficient quantity of SC-β cells that can be useful for drug screening, disease modeling, or therapeutic use. For example, hES cells are technically difficult to culture, are vulnerable to apoptosis upon cellular detachment and dissociation, undergo massive cell death particularly after complete dissociation, and have low cloning efficiency. (Watanabe, K. et al., Nature Biotechnology 25, 681-686 (2007)). As a result, the quantity of viable SC-β cells yielded may be low. By modify the protocol between Steps 3 and 6 in the manner shown in FIG. 15A, more pure NKX6.1+ endocrine clusters can be generated (FIG. 15B) leading to more SC-β cells that can be therapeutically useful.
In Steps 3-5, for instance, cell survival can be improved by adding a rho-associated protein kinase inhibitor, or a Rock inhibitor. It is believed that the addition of a Rock inhibitor enhances survival of ES cells by preventing dissociation-induced apoptosis thus increasing their cloning efficiency. (Watanabe et al.) Examples of Rock inhibitors include, but are not limited to, Y-27632, Fasudil/HA1077, and H-1152.
In addition to treating the cells with a Rocki inhibitor, the cells in Steps 3-4 can be treated with ActivinA alone or in combination with Nicotinamide. […] Since SOX2 and NKX6-1 are mutually exclusive (FIG. 15E), down-regulation of SOX2 results in the up-regulation of NKX6-1, a marker for a mature pancreatic cell.
In Steps 5-6, cell survival can further be enhanced by treating cells with staurosporine. Staurosporine is known to be an activator of neuronal, glial, and stem cell-like neurosphere differentiation and is also thought to induce apoptosis. (Schumacher, et al., Mol. Cell. Neurosci. 2003; 23(4): 669-680).
Finally, cell survival can further be enhanced by treating cells with a culture medium containing Alk5i, T3 in combination with XXI, a γ-secretase inhibitor that improves β cell maturation.

SC-β cells [1] = assay: Anti-diabetic drug treatment of plated SC-β cells, secreted human insulin ELISA; format: cell-based; conditions: 2 and 20 mM glucose
Procedure: FIG. 16A is a schematic illustration of the utility of SC-β cells for treating diabetes or screening drugs to improve function or replication. FIG. 16B is a table listing diabetic drugs investigated and their general therapeutic category. FIG. 16C is a graph showing ELISA measurements of secreted human insulin from plated SC-β cells treated with the indicated drugs in 2 and 20 mM glucose. Indicated p values compare the insulin value in 20 mM glucose between the drug and the control. FIG. 16D is an immunofluorescence image of dispersed and plated SC-β cells stained with DAPI (blue), C-peptide (green), and Ki67 (red) without treatment. FIG. 16E is an immunofluorescence image of dispersed and plated SC-β cells stained with DAPI (blue), C-peptide (green), and Ki67 (red) treated with prolactin for 48 hours. […] FIG. 16G is a graph illustrating fasting blood glucose measurements of Akita mice transplanted with SC-β cells (n=6) or PH cells (n=6). *p<0.05 comparing the two cell groups on the same day. FIG. 16H is a graph illustrating blood glucose measurements from progressively diabetic Akita mice transplanted with SC-β cells or PH cells. Measurements were taken before (white bars) and 20 min after (black bars) a glucose injection of mice transplanted 2 weeks prior. Glucose measurements were saturated at 550 mg/dL. *p<0.05 comparing the two cell groups at the same time post glucose injection. FIG. 16I is a graph showing ELISA measurements of human insulin from the serum of Akita mice 20 min after a glucose injection. Mice were challenged with glucose 2 weeks post transplantation. *p<0.05 comparing the two cell groups. Scale bar-50 μm.
The inventors first tested whether SC-β cells could respond to existing anti-diabetic drugs from several different classes (FIG. 16B). LY2608204 is glucokinase activator in clinical trials while liraglutide, tolbutamide, and nateglinide are examples of GLP-1 agonists and secretagogues (sulfonylureas and meglitinides), respectively, that have been used clinically (Matschinsky, 2009; Modi, 2007; Vetere et al., 2014).

SC-β cells [2] = assay: GSIS of SC-β cells after additional factors in the last-step (Stage 6) media; format: cell-based, human; conditions: factor added to CMRL media containing Alk5 inhibitor and T3 hormone; versus CMRL only, CMRL+Alk5i+T3, S3+Alk5i+T3
Text: To induce the in vitro maturation of at least some of the Pdx1-positive, NKX6-1-positive, insulin-positive endocrine cells into SC-β cells, the Pdx1-positive, NKX6-1-positive, insulin-positive endocrine cells are maintained in a suitable culture medium for a sufficient period of time. […] Adding additional factors to the CMRL media at the last step of differentiation (Stage 6) (FIG. 14A), however, was also found to generate a better glucose stimulated insulin secretion (GSIS) response by SC-β cells as measured by either stimulation index between high and low glucose challenges or by the amount of insulin released. Such additional factors may include, but are not limited to, Sant1, XXI, and SSP. The stimulation index, as calculated by the ratio of insulin secreted in high glucose (15 mM) to low glucose (2.5 mM), was greater for the SC-β cells maintained in a CMRL media containing Alk5 inhibitor, T3 hormone and either Sant1, XXI or SSP than those SC-β cells maintained in only CMRL media, CMRL media containing Alk5 inhibitor and T3 hormone, or S3 media containing Alk5 inhibitor and T3 hormone (FIG. 14B). Furthermore, the amount of insulin secreted was greater for the SC-β cells maintained in a CMRL media containing Alk5 inhibitor, T3 hormone and either Sant1, XXI or SSP than those SC-β cells maintained in only CMRL media, CMRL media containing Alk5 inhibitor and T3 hormone, or S3 media containing Alk5 inhibitor and T3 hormone (FIG. 14C).
Alternatively, Days 21-35: CMRLS+10 μM Alk5i II+1 μM T3+Sant1.
Alternatively, Days 21-35: CMRLS+10 μM Alk5i II+1 μM T3+XXI.
Alternatively, Days 21-35: CMRLS+10 μM Alk5i II+1 μM T3+SSP.

SC-β cells [3] = assay: β cell replication: C-peptide and Ki67 staining of plated SC-β cells; format: cell-based, human; conditions: SC-β cells treated with prolactin for 48 hours
Procedure: FIG. 16A is a schematic illustration of the utility of SC-β cells for treating diabetes or screening drugs to improve function or replication. FIG. 16B is a table listing diabetic drugs investigated and their general therapeutic category. FIG. 16C is a graph showing ELISA measurements of secreted human insulin from plated SC-β cells treated with the indicated drugs in 2 and 20 mM glucose. Indicated p values compare the insulin value in 20 mM glucose between the drug and the control. FIG. 16D is an immunofluorescence image of dispersed and plated SC-β cells stained with DAPI (blue), C-peptide (green), and Ki67 (red) without treatment. FIG. 16E is an immunofluorescence image of dispersed and plated SC-β cells stained with DAPI (blue), C-peptide (green), and Ki67 (red) treated with prolactin for 48 hours. […] FIG. 16G is a graph illustrating fasting blood glucose measurements of Akita mice transplanted with SC-β cells (n=6) or PH cells (n=6). *p<0.05 comparing the two cell groups on the same day. […]
Cells were dispersed and plated onto 96 well plates. […] The percentage of target cell-types was quantified using the Array Scan Cellomics high-content screening system. Here 30 images were acquired per well and quantified. Cells labeled by antibody staining and total cell number (based on DAPI nuclei staining) were quantified to obtain percentages of target cell types.

CN[C@@H]1C[C@H]2O[C@@](C)([C@@H]1OC)n1c3ccccc3c3c4c(c5c6ccccc6n2c5c31)C(=O)NC4 [staurosporine]
percentage of ChromograninA (cells in Steps 3-6; Steps 5-6): increasing the percentage of ChromograninA
percentage of NKX6-1/C-peptide+ cells (cells in Steps 3-6; Steps 5-6): increasing the percentage of NKX6-1.C-peptide+ cells

CCCCNC(=O)NS(=O)(=O)c1ccc(C)cc1 [tolbutamide]
insulin secretion in vitro following a glucose challenge (SC-β cells [1]): increasing insulin secretion

O=C(Nc1ncc(SCCN2CCCC2)s1)[C@]1(c2ccc(S(=O)(=O)C3CC3)cc2)C[C@H]1C1CCCCC1 [LY2608204]
insulin secretion in vitro following a glucose challenge (SC-β cells [1]): increasing insulin secretion

CC(C)[C@H]1CC[C@H](C(=O)N[C@H](Cc2ccccc2)C(=O)O)CC1 [nateglinide]
insulin secretion in vitro following a glucose challenge (SC-β cells [1]): increasing insulin secretion

C[C@H](NC(=O)Cc1cc(F)cc(F)c1)C(=O)N[C@H]1N=C(c2ccccc2)c2ccccc2N(C)C1=O [XXI]
amount of insulin secreted (SC-β cells [2]): greater
stimulation index, ratio of insulin secreted in high glucose (15 mM) to low glucose (2.5 mM) (SC-β cells [2]): greater
NeuroD1+ population (cells in Steps 3-6; added to medium with Alk5i and T3 at Steps 5 and 6): increase the NeuroD1+ population

Cc1nn(-c2ccccc2)c(C)c1/C=N/N1CCN(Cc2ccccc2)CC1 [Sant1]
amount of insulin secreted (SC-β cells [2]): greater
stimulation index, ratio of insulin secreted in high glucose (15 mM) to low glucose (2.5 mM) (SC-β cells [2]): greater

NC(=O)c1cccnc1 [Nicotinamide]
cell survival (cells in Steps 3-6): improve cell survival

B1: prolactin: hormone tested for β cell replication (protein, UniProt P01236 29-227, looked up)
Prolactin: LPICPGGAARCQVTLRDLFDRAVVLSHYIHNLSSEMFSEFDKRYTHGRGFITKAINSCHTSSLATPEDKEQAQQMNQKDFLSLIVSILRSWNEPLYHLVTEVRGMQEAPEAILSKAVEIEEQTKRLLEGMELIVSQVHPETKENEIYPVWSGLPSLQMADEESRLSAYYNLLHCLRRDSHKIDNYLKLLKCRIIHNNNC
Ki67+/C-peptide+ cells (SC-β cells [3]): 0.39±0.08%

B2: Activin A: growth factor from the TGF-β superfamily (protein, UniProt P08476 311-426, looked up)
Inhibin beta A chain: GLECDGKVNICCKKQFFVSFKDIGWNDWIIAPSGYHANYCEGECPSHIAGTSGSSLSFHSTVINHYRMRGHSPFANLKSCCVPTKLRPMSMLYYDDGQNIIKKDIQNMIVEECGCS
modifications: Inhibin beta A chain
notes: growth factor from the TGF-β superfamily
cell survival (cells in Steps 3-6): improve cell survival
